Laboratory results: patent US20240350471A1, “PHARMACEUTICAL COMPOSITION FOR PREVENTING OR TREATING ATTENTION DEFICIT/HYPERACTIVITY DISORDER” (DANKOOK UNIVERSITY CHEONAN CAMPUS INDUSTRY ACADEMIC …, priority 2021, published 2024)

System: Git1 hetero type (+/−) mice
Experiment: Open field test in Git1 hetero type (+/−) ADHD model mice treated with SNAP5114
Assay type: in vivo
Conditions: SNAP5114 I.P. 50 ug/kg for 7 days prior to the experiment, movement measured for 10 minutes
Procedure: Git1 gene-deficient hetero (+/−) mice were prepared as an animal model with attention deficit/hyperactivity disorder (ADHD). Wild-type mice and GIT1 gene-deficient knock-out type (KO type) mice were crossed to obtain GIT1 gene-deficient hetero type. After making mating cages for among the obtained hetero type mice, genotyping was performed to isolate the hetero type mice. SNAP5114 was administered intraperitoneally (I.P.) at a concentration of 50 ug/kg for 7 days prior to the experiment. SNAP5114 was dissolved in 10% DMSO and then used by dissolving in 90% saline just before the experiment. Open field tests were performed to evaluate behavioral morphology and, in order to determine the characteristics of tonic GABA in the striatum, a representative brain region that controls hyperactivity, immunohistochemistry and electrophysiological measurements (patch clamp recording) were performed. Considering that changes in the amount of GABA associated with astrocytes in ADHD model mice are related to the transport protein that transports GABA into the astrocytes, behavioral experiments were conducted by treating the SNAP5114, an inhibitor of GABA transporter-3 (GAT-3). […] The mice were placed in the center of an open field test cage (30×30×30 cm), and its movement was measured for 10 minutes. The measured videos were analyzed for locomotor activity through ANYmaze.

COc1ccc(C(OCCN2CCC[C@H](C(=O)O)C2)(c2ccc(OC)cc2)c2ccc(OC)cc2)cc1 [SNAP5114, (S)-1-(2-(tris(4-methoxyphenyl)methoxy)ethyl)piperidine-3-carboxylic acid]
hyperactivity (distance of movement, locomotor activity) in open field test: hyperactivity was found to be ameliorated to the level of WT
